According to patent US20230138752A1, “PLASTICIZERS TO IMPROVE RELEASE PERFORMANCE OF AMORPHOUS SOLID DISPERSIONS” (Purdue Research Foundation, priority 2021, published 2023):
Entries after “also recorded” stand apart in the source; their conditions may differ. Where a name gives a salt, the structure may show the parent alone. Read-outs that look alike come from different tables or passages of the source.

Tests used:
[1] = literature; cited from earlier work
[2] = Surface normalized dissolution of ASD tablets (release, limit of congruency); format: physicochemical; settings: for limit of congruency (LoC) of ATZ-PVPVA ASDs: ASD containing 5% w/w of the plasticizer; for increase in LoC of ATZ versus binary ASD / normalized release rate of drug and polymer versus neat PVPVA: ATZ-PVPVA ASD; for limit of congruency (LoC) of LED-PVPVA ASDs: ASD containing 10% w/w of the plasticizer; for lag time in the release profile: ATZ-PVPVA ASD at the LoC (20% DL TEC, 25% DL TEAC and TBAC); for total release of LED / release of LED: LED 10% DL; for increase in LoC of LED versus binary ASD: LED-PVPVA ASD; for dissolution rate of PVPVA containing plasticizer versus neat PVPVA: PVPVA with 10% w/w plasticizer, no drug; for normalized release rate of drug and polymer versus neat PVPVA: ATZ 10 DL+GTA, ATZ 25DL+GTB
Protocol: All dissolution experiments were conducted in 50 mM phosphate buffer pH 6.8 prepared by dissolving 3.52 g of sodium phosphate monobasic monohydrate and 3.48 g of sodium phosphate dibasic anhydrous to 1L with Milli-Q water. The pH was adjusted to pH 6.8 if needed using HCl or NaOH.
Surface normalized dissolution was employed to evaluate the release performance of the ASDs and to calculate the normalized release rate. A Hanson Vision G2 dissolution tester with a Vision heater (Teledyne Hanson Chatsworth, CA) was utilized. A tablet was prepared immediately prior to the dissolution test by compressing 100 mg of ASD in an 8 mm die at 2 500 psi for 60 seconds yielding a tablet surface are of 50 mm^2. The temperature was maintained at 37° C., the rotation speed was 100 rpm, and the dissolution medium was 50 mM phosphate buffer pH 6.8 degassed and pre-equilibrated at 37° C. 100 to 200 μl of sample was withdrawn every 5 min for the initial 20 minutes, then every 10 minutes until 60 minutes and finally at 75, 90 and 120 minutes. The medium was replenished after each sample withdrawal to maintain a constant volume.
The concentration of API and polymer during the dissolution was assessed by high performance liquid chromatography (HPLC) using an Agilent 1100 system (Agilent Technologies, Santa Clara, Calif.). An Ascentis® Express C18 10 cm×3 mm with 2.7 μm particle size column (Sigma-Aldrich St. Louis, Mo.) was employed for separation of ATZ, RTV, and LED. […] For ATZ and LED, the mobile phase was aqueous TFA 0.1% v/v:acetonitrile (ACN) 6:4 v/v at a flow rate of 0.5 ml/min, injection volume 10 detection wavelength (X.) 210 nm, and column temperature 40° C. For RTV, the mobile phase was aqueous TFA 0.1% v/v:ACN 6:4 v/v, flow rate 0.5 ml/min, injection volume 10 detection λ 241 nm and column temperature 40° C.
The surface normalized dissolution rate (R) was calculated based on the mg released versus time profile. The slope from cumulative mg release vs time represents the release rate (k). To normalize, k was divided by the tablet surface area (S, 0.5 cm^2) times the fraction of the component (x) (Equation 1)

[3] = Glass transition temperature (Tg) by DSC; format: physicochemical; settings: for Tg of the API: neat API (dry Tg); for reduction of ASD Tg on increasing plasticizer from 5 to 10% w/w: LED 10% DL
Protocol: Glass transition temperature and plasticizer-API miscibility was determined using a TA Q2000 differential scanning calorimeter (DSC) (TA Instruments, New Castle, DE) with a refrigerated cooling accessory (RCS) using N2 as the purge gas at a flow of 50 ml/min. For Tg determination, around 5 mg of sample was accurately weighed into an aluminum pan with a Tzero lid and subject to a cool-heat-cool cycle. Samples were cooled at -20° C. and heated up to 220° C. The heating was done in modulated mode at a heating rate of 2° C/min with a modulation period of +/−1° C. every 60 seconds. The midpoint temperature of the heat capacity change in the thermogram from the second heating cycle scan was taken as the Tg. The DSC was calibrated with indium at the appropriate heating rate.

[4] = Dynamic vapor sorption (DVS), isothermal water sorption; format: physicochemical; settings: for effect of plasticizer on polymer (PVPVA) water sorption: PVPVA containing GTB or TBC
Protocol: The isothermal water sorption at 37° C. was measured for selected ASDs using a DVS-Advantage device (Surface Measurement System Ltd Allentown, Pa.). Around 5 mg of sample was first dried at 0% relative humidity (RH) and 37° C. for one hour followed by exposure to 95% RH and 37° C. for at least 8 hours. Percent of water sorbed and derivative of percent mass over time (dm/dT %) was analyzed.

[5] = API:plasticizer 8:1 miscibility and Tg depression by DSC; format: physicochemical
Protocol: API:plasticizer at a ratio 8:1 was prepared by rotary evaporation to evaluate miscibility and Tg depression produced by the plasticizer. 3 to 5 mg was accurately weighed in an aluminum pan with a hermetic lid with a pinhole. Since the Tg was evaluated after only 1 hour of vacuum drying to avoid crystallization, a second drying was done by employing an isothermal hold at 20° C. in the DSC with nitrogen flow for at least 20 minutes. Then, the sample was cooled to −60 and heated at 2° C./min to 210° C. with a modulation period +/−1° C. every 60 seconds.

[6] = 20% DL ATZ ternary ASD, 5% w/w plasticizer, 95% RH/37° C.

SMILES: Clc1ccc(COC(Cn2ccnc2)c2ccc(Cl)cc2Cl)c(Cl)c1 (stereo not shown) [miconazole]
- limit of congruency (LoC) of PVPVA-based ASD, reported [1]: 25 % DL

SMILES: OCC(O)CO [glycerol, Glycerol]
- limit of congruency (LoC) of ATZ-PVPVA ASDs [2]: 7.5 % DL
- increase in LoC of ATZ versus binary ASD ([2]; 5% w/w plasticizer): 1.5 fold

SMILES: CC(C)c1nc(CN(C)C(=O)N[C@H](C(=O)N[C@@H](Cc2ccccc2)C[C@H](O)[C@H](Cc2ccccc2)NC(=O)OCc2cncs2)C(C)C)cs1 [RTV, ritonavir, reference compound]
- increase in LoC of RTV versus binary ASD ([2]; RTV-PVPVA ASD with plasticizers GTB and TBC): 1.2 fold
- Tg of the API [3]: 50 °C
- limit of congruency (LoC) of PVPVA-based ASD, reported [1]: 25 % DL

SMILES: CCOC(=O)CC(CC(=O)OCC)(OC(C)=O)C(=O)OCC [TEAC, triethyl acetyl citrate]
- limit of congruency (LoC) of ATZ-PVPVA ASDs [2]: 25 % DL
- limit of congruency (LoC) of LED-PVPVA ASDs [2]: 15 % DL
- lag time in the release profile ([2]; 5% w/w plasticizer): around 20 min
- total release of LED ([2]; 5% w/w plasticizer): 20%
- release of LED ([2]; 10% w/w plasticizer): complete drug release
- reduction of ASD Tg on increasing plasticizer from 5 to 10% w/w [3]: 14 °C
- water uptake versus binary 20% DL ATZ ASD [4]: slight increase in water uptake

SMILES: O=C(O)CC(O)(CC(=O)O)C(=O)O [citric acid]
- limit of congruency (LoC) of ATZ-PVPVA ASDs [2]: 7.5 % DL
- release of LED ([2]; 5% w/w plasticizer): complete release

SMILES: COC(=O)N[C@H](C(=O)N1CC2(CC2)C[C@H]1c1nc(-c2ccc3c(c2)C(F)(F)c2cc(-c4ccc5[nH]c([C@@H]6[C@H]7CC[C@H](C7)N6C(=O)[C@@H](NC(=O)OC)C(C)C)nc5c4)ccc2-3)c[nH]1)C(C)C [LED, ledipasvir]
- Tg of the API [3]: 160 °C
- Tg ([5]; LED:plasticizer 8:1 amorphous mix): 162 °C
- limit of congruency (LoC) of PVPVA-based ASD, reported [1]: ~5 % DL

SMILES: CCCCOC(=O)CC(CC(=O)OCCCC)(OC(C)=O)C(=O)OCCCC [TBAC, Tributyl-o-acetylcitrate]
- limit of congruency (LoC) of ATZ-PVPVA ASDs [2]: 25 % DL
- lag time in the release profile ([2]; 5% w/w plasticizer): around 20 min

SMILES: CCOC(=O)CC(O)(CC(=O)OCC)C(=O)OCC [TEC, triethyl citrate]
- limit of congruency (LoC) of ATZ-PVPVA ASDs [2]: 20 % DL
- lag time in the release profile ([2]; 5% w/w plasticizer): around 20 min
- total release of LED ([2]; 5% w/w plasticizer): 12%
- reduction of ASD Tg on increasing plasticizer from 5 to 10% w/w [3]: 10 °C
- water uptake versus binary 20% DL ATZ ASD [4, 6]: very similar water uptake as the binary ASD

SMILES: CCCCOC(=O)CC(O)(CC(=O)OCCCC)C(=O)OCCCC [TBC, Tri-n-butyl citrate]
- release from RTV-PVPVA ASD ([2]; 30% DL, 5% w/w plasticizer): Complete release
- release from RTV-PVPVA ASD ([2]; 35% DL, 5% w/w plasticizer): not at 35% DL
- limit of congruency (LoC) of ATZ-PVPVA ASDs [2]: 25 % DL
- limit of congruency (LoC) of LED-PVPVA ASDs [2]: 15 % DL
- increase in LoC of ATZ versus binary ASD ([2]; 5% w/w plasticizer): 5 fold
- release of LED ([2]; 10% w/w plasticizer): complete drug release
- increase in LoC of LED versus binary ASD ([2]; 10% w/w plasticizer): 3 fold
- dissolution rate of PVPVA containing plasticizer versus neat PVPVA [2]: as much as twice; also recorded: faster dissolution rate
- water uptake versus binary 20% DL ATZ ASD [4, 6]: slight increase in water uptake
- water uptake at 10, 20 and 30% DL ([4]; ATZ ternary ASD containing 5% w/w TBC): similar
- effect of plasticizer on polymer (PVPVA) water sorption [4]: dramatically reduced

SMILES: CCCC(=O)OCC(COC(=O)CCC)OC(=O)CCC [GTB, Glycerol tributyrate]
- release from RTV-PVPVA ASD ([2]; 30% DL, 5% w/w plasticizer): Complete release
- release from RTV-PVPVA ASD ([2]; 35% DL, 5% w/w plasticizer): not at 35% DL
- limit of congruency (LoC) of ATZ-PVPVA ASDs [2]: 25 % DL
- limit of congruency (LoC) of LED-PVPVA ASDs [2]: 20 % DL
- increase in LoC of ATZ versus binary ASD ([2]; 5% w/w plasticizer): 5 fold
- normalized release rate of drug and polymer versus neat PVPVA ([2]; 5% w/w plasticizer): faster than that of neat PVPVA
- release of LED ([2]; 10% w/w plasticizer): complete drug release
- increase in LoC of LED versus binary ASD ([2]; 10% w/w plasticizer): 4 fold
- dissolution rate of PVPVA containing plasticizer versus neat PVPVA [2]: as much as twice; also recorded: faster dissolution rate
- water uptake versus binary 20% DL ATZ ASD [4, 6]: more prominent increase of water uptake
- effect of plasticizer on polymer (PVPVA) water sorption [4]: dramatically reduced

SMILES: COC(=O)N[C@H](C(=O)N[C@@H](Cc1ccccc1)[C@@H](O)CN(Cc1ccc(-c2ccccn2)cc1)NC(=O)[C@@H](NC(=O)OC)C(C)(C)C)C(C)(C)C [ATZ, atazanavir]
- Tg ([5]; ATZ:plasticizer 8:1 amorphous mix): 105.5 °C
- limit of congruency (LoC) of PVPVA-based ASD, reported [1]: ~5 % DL

SMILES: CC(=O)OCC(COC(C)=O)OC(C)=O [GTA, Glycerol triacetate]
- limit of congruency (LoC) of ATZ-PVPVA ASDs [2]: 10 % DL
- normalized release rate of drug and polymer versus neat PVPVA ([2]; 5% w/w plasticizer): faster than that of neat PVPVA

SMILES: CC(=O)OCC(CO)OC(C)=O (stereo not shown) [GDA, glycerol diacetate]
- limit of congruency (LoC) of ATZ-PVPVA ASDs [2]: 7.5 % DL
